Activity calls are given as the source filed them. The rule behind the calls is not given here.
Experiments:
Lipid bilayer [1] = assay: Binding affinity to external surface of dimyristoylphosphatidylcholine multilamellar vesicles at 0.09 molar fraction by differential scanning calorimetry
[2] = Induction of thermotropic behavior changes in dimyristoylphosphatidylcholine multilamellar vesicles assessed as changes in pre-transition peak at 0.015 to 0.15 molar fraction by differential scanning calorimetry
[3] = Pro-oxidant activity in lipophilic medium containing linoleic acid by crocin bleaching assay; assay type: functional
[4] = Induction of thermotropic behavior changes in dimyristoylphosphatidylcholine multilamellar vesicles assessed as reduction in enthalpy of phase transition at 0.06 molar fraction by differential scanning calorimetry; set-up: scale not given: the % may be the effect or the level left
[5] = Induction of thermotropic behavior changes in dimyristoylphosphatidylcholine multilamellar vesicles assessed as reduction in enthalpy of phase transition at 0.015 molar fraction by differential scanning calorimetry; set-up: scale not given: the % may be the effect or the level left
[6] = Antioxidant activity assessed as inhibition of AAPH-induced crocin oxidation in hydrophilic medium at 5 to 500 uM by crocin bleaching assay; assay type: physicochemical
[7] = Antioxidant activity assessed as inhibition of AAPH-induced crocin oxidation at 5 to 500 uM in lipophilic medium containing linoleic acid by crocin bleaching assay; assay type: physicochemical
[8] = Drug absorption in dimyristoylphosphatidylcholine multilamellar vesicles at 0.09 molar fraction by differential scanning calorimetry; assay type: physicochemical
[9] = Induction of thermotropic behavior changes in dimyristoylphosphatidylcholine multilamellar vesicles assessed as reduction in enthalpy of phase transition at 0.045 molar fraction by differential scanning calorimetry; set-up: scale not given: the % may be the effect or the level left
[10] = Pro-oxidant activity in hydrophilic medium by crocin bleaching assay; assay type: functional
[11] = Induction of thermotropic behavior changes in dimyristoylphosphatidylcholine multilamellar vesicles assessed as reduction in enthalpy of phase transition at 0.09 molar fraction by differential scanning calorimetry; set-up: scale not given: the % may be the effect or the level left
[12] = Induction of thermotropic behavior changes in dimyristoylphosphatidylcholine multilamellar vesicles assessed as reduction in transition temperature at 0.015 to 0.15 molar fraction by differential scanning calorimetry
[13] = Induction of thermotropic behavior changes in dimyristoylphosphatidylcholine multilamellar vesicles assessed as reduction in enthalpy of phase transition at 0.15 molar fraction by differential scanning calorimetry; set-up: scale not given: the % may be the effect or the level left
[14] = Induction of thermotropic behavior changes in dimyristoylphosphatidylcholine multilamellar vesicles assessed as changes in main transition peak at 0.015 to 0.15 molar fraction by differential scanning calorimetry
[15] = Induction of thermotropic behavior changes in dimyristoylphosphatidylcholine multilamellar vesicles assessed as reduction in enthalpy of phase transition at 0.03 molar fraction by differential scanning calorimetry; set-up: scale not given: the % may be the effect or the level left
Lipid bilayer [16] = assay: Induction of thermotropic behavior changes in dimyristoylphosphatidylcholine multilamellar vesicles assessed as reduction in enthalpy of phase transition at 0.12 molar fraction by differential scanning calorimetry; set-up: scale not given: the % may be the effect or the level left
[17] = Induction of thermotropic behavior changes in dimyristoylphosphatidylcholine multilamellar vesicles assessed as reduction in cooperativity among phospholipid molecules by measuring peak width at half height at 0.015 to 0.15 molar fraction by differential scanning calorimetry
[18] = Drug absorption in dimyristoylphosphatidylcholine multilamellar vesicles at 0.045 molar fraction using lipophilic medium as carrier by differential scanning calorimetry; assay type: physicochemical; conditions: octanol/water
[19] = Induction of thermotropic behavior changes in dimyristoylphosphatidylcholine multilamellar vesicles assessed as reduction in enthalpy of phase transition at 0.015 to 0.15 molar fraction by differential scanning calorimetry

| SMILES | Activity (Lipid bilayer [1]) | Activity [2] | Activity [3] | Activity [4] [%] | Activity [5] [%] | Activity [6] | Activity [7] | Drug uptake [8] | Activity [9] [%] | Activity [10] | Activity [11] [%] | Activity [12] | Activity [13] [%] | Activity [14] | Activity [15] [%] | Activity (Lipid bilayer [16]) [%] | Activity [17] | Drug uptake [18] | Activity [19] |
| --- | --- | --- | --- | --- | --- | --- | --- | --- | --- | --- | --- | --- | --- | --- | --- | --- | --- | --- | --- |
| CCCCCC/C(C=O)=C\c1ccccc1 | Active | Active | inactive | 91.7 | 95 | Active | Active | Active | 98.3 | inactive | 79.5 | Dose-dependent effect | 74.1 | Active | 96 | 71.2 | Dose-dependent effect | Active | Dose-dependent effect |
| Cc1c(C)c2c(c(C)c1O)CCC(C)(C(=O)O)O2 (stereo unspecified) [TROLOX] |  |  |  |  |  | Active | Active |  |  |  |  |  |  |  |  |  |  |  |  |
